Reference: patent US20220267268A1, “NEW TRICYCLIC 5-HT2 ANTAGONISTS” (Anamar AB, priority 2019, published 2022)
Structures can show the parent of a compound that is named as a salt. Marks after values point to notes of the source that are not given here.

Assays:
[1] = target: T1, 5-HT2B receptor (Homo sapiens, UniProt P41595); test: 5-HT2B receptor binding, ligand displacement assay with 3H-LSD radioligand; details: human receptor in CHO-K1; for inhibition at 0.001 µM: 1 nM compound; for inhibition at 0.01 µM: 10 nM compound; for inhibition at 0.1 µM: 100 nM compound
T1 construct: host or cells: CHO-K1
T1 sequence (P41595 whole entry): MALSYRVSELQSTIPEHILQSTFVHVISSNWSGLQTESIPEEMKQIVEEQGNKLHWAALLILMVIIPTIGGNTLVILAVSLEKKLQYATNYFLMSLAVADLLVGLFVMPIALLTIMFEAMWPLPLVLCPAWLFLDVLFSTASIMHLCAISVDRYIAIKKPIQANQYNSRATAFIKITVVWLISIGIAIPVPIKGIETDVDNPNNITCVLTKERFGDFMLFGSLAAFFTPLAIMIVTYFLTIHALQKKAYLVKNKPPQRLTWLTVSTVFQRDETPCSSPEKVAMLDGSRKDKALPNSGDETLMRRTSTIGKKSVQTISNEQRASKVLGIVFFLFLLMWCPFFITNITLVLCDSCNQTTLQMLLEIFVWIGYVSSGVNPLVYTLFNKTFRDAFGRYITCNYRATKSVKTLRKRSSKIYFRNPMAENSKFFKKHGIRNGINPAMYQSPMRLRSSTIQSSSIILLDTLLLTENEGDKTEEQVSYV
Experimental: 5-HT2B receptor binding (performed at Eurofins Panlabs Taiwan, Ltd.) to human receptor protein expressed in CHO-K1 cells was determined in a ligand displacement assay using ^3H-lysergic acid diethylamide (LSD) as radioligand and ketanserine as a standard reference compound, or alternatively*, with ^3H-mesulergine and SB 206553 as reference. Data is presented as % displacement of radioligand at indicated compound concentrations, see Table 1.

[2] = target: T1, 5-HT2B receptor; test: 5-HT2B receptor antagonism, inhibition of 5-HT stimulated IP-1 accumulation (HTRF) in CHO-K1 cells; assay type: cell-based; details: 5-HT (5 nM) stimulated IP-1 accumulation; for inhibition at 0.001 µM: 1 nM compound; for inhibition at 0.01 µM: 10 nM compound; for inhibition at 0.1 µM: 100 nM compound; for inhibition at 1 µM: 1000 nM compound
Experimental: (§1) 5-HT2B receptor antagonism (performed at Eurofins Panlabs Taiwan, Ltd.) was determined in CHO-K1 cells expressing human receptor protein as inhibition of 5-HT (5 nM) stimulated IP-1 accumulation measured by HTRF quantitation. SB 206553 was used as a standard reference compound. The antagonistic response is expressed as % inhibition of the 5-HT induced effect, see Table 2.

[3] = target: T1, 5-HT2B receptor; test: 5-HT2B receptor agonism, IP-1 accumulation in CHO-K1 cells without prior 5-HT stimulation; assay type: cell-based; details: % of IP-1 accumulation induced by 5-HT (1 uM); for 5-HT2B receptor agonism (% of positive control) 1 nM: 1 nM compound; for 5-HT2B receptor agonism (% of positive control) 10 nM: 10 nM compound; for 5-HT2B receptor agonism (% of positive control) 100 nM: 100 nM compound; for 5-HT2B receptor agonism (% of positive control) 1000 nM: 1000 nM compound
Experimental: as §1
5-HT2B receptor agonism (performed at Eurofins Panlabs Taiwan, Ltd.) was determined in the same model as described above in Example 50 without prior stimulation with 5-HT. The agonistic response is expressed as % of the IP-1 accumulation induced by 5-HT (1 uM) stimulation, see Table 3.

[4] = system: bleomycin-induced dermal fibrosis; test: Anti-fibrotic effects in bleomycin-induced dermal fibrosis in mice; assay type: in vivo, female DBA/2 mice
Experimental: Skin fibrosis was induced in female DBA/2 mice by subcutaneous injections of bleomycin (2.5 mg/kg) every other day for three or six weeks.
For preventive treatment, mice were challenged with bleomycin for three weeks and treatment by oral gavage was established simultaneously. For therapeutic treatment, fibrosis was first induced by injections of bleomycin for three weeks in the absence of treatment. Thereafter, treatment by oral gavage was initiated, while injections of bleomycin were continued. The outcome was analyzed three or six weeks after the first injection of bleomycin for preventive and therapeutic treatment, respectively. Mice injected with 0.9% NaCl, the vehicle of bleomycin, served as non-fibrotic controls and mice treated with ddH2O (the vehicle for test compound) by oral gavage served as negative controls.
Groups 1-8 of n=8 Female DBA/2 Mice: Preventive dosing 3 weeks in total 1. 0.9% NaCl (injection) and ddH2O (orally) week 1-3. 2. Bleomycin (injection) and ddH2O (orally) week 1-3. 3. Bleomycin (injection) and test compound (10 mg/kg, qd, orally) week 1-3. Therapeutic dosing 6 weeks in total 4. 0.9% NaCl (injection) week 1-6 and ddH2O (orally) week 4-6. 5. Bleomycin (injection) week 1-3, 0.9% NaCl (injection) week 4-6, and ddH2O (orally) week 4-6. 6. Bleomycin (injection) week 1-6 and ddH2O (orally) week 4-6. 7. Bleomycin (injection) week 1-6 and test compound (1 mg/kg, qd, orally) week 4-6. 8. Bleomycin (injection) week 1-6 and test compound (10 mg/kg, qd, orally) week 4-6.
Defined areas of the skin of the upper back were excised, subsequently fixed in 4% formalin for 6 h and embedded in paraffin. Skin sections were cut and stained with hematoxylin/eosin. The dermal thickness (measured as distance between the epidermal-dermal border to the dermal-subcutaneous border in arbitrary units) was quantified in 4 different sections from different sites with 2 measurements per section. The analysis was performed in a blinded manner.
Myofibroblasts are characterized by the expression of α-smooth muscle actin (αSMA). Fibroblasts positive for αSMA were detected in paraffin-embedded slides from the upper back by incubation with monoclonal anti-αSMA antibodies (clone 1A4, Sigma-Aldrich, Steinheim, Germany). The expression was visualized with horseradish peroxidase labeled secondary antibodies and 3,3-diaminobenzidine tetrahydrochloride (DAB) (Sigma-Aldrich). Monoclonal mouse IgG antibodies (Calbiochem, San Diego, Calif., USA) were used for controls. The analysis was performed by a blinded reviewer evaluating the myofibroblasts in four sections per sample.
The amount of collagen protein (ug/mL) in skin samples was determined via hydroxyproline assay. After digestion of full skin thickness punch biopsies (Ø 3 mm) derived from the upper back in 6 M HCl for three hours at 120° C., the pH of the samples was adjusted to 6 with 6 M NaOH. Afterwards, 0.06 M chloramine T was added to each sample and incubated for 20 m at room temperature. Next, 3.15 M perchloric acid and 20% p-dimethylaminobenzaldehyde were added and samples were incubated for additional 20 min at 60° C. The absorbance was determined at 557 nm with a Spectra MAX 190 microplate spectrophotometer using a standard curve generated with purified type I collagen (Sigma-Aldrich).
All data are presented as group mean values (±SEM), and differences between the groups were tested for their statistical significance by Mann-Whitney U non-parametric test for non-related samples. P-values less than 0.05 were considered significant.

[5] = Preventive dosing, Group 3: 10 mg/kg qd orally week 1-3, mean (SEM), p < 0.001 vs group 2
[6] = Therapeutic dosing, Group 7: 1 mg/kg qd orally week 4-6, mean (SEM)
[7] = Therapeutic dosing, Group 8: 10 mg/kg qd orally week 4-6, mean (SEM)
[8] = preventive and therapeutic treatment, compared to vehicle-treated, bleomycin-challenged mice

CC1CN(C(=N)N)c2ccc3cc(F)ccc3c21.Cl (stereo not drawn) [Example 1, 7-Fluoro-1-methyl-1,2-dihydro-3H-benzo[e]indole-3-carboximidamide hydrochloride]
inhibition at 0.001 µM [1]: 9% | inhibition at 0.01 µM [1]: 49% | inhibition at 0.1 µM [1]: 88% | inhibition at 0.001 µM [2]: 2% | inhibition at 0.01 µM [2]: 14% | inhibition at 0.1 µM [2]: 80% | inhibition at 1 µM [2]: 97% | 5-HT2B receptor agonism (% of positive control) 1 nM [3]: −1% | 5-HT2B receptor agonism (% of positive control) 10 nM [3]: 2% | 5-HT2B receptor agonism (% of positive control) 100 nM [3]: 7% | 5-HT2B receptor agonism (% of positive control) 1000 nM [3]: 0%

CC1CN(C(=N)N)c2ccc3c(F)cccc3c21 (stereo not drawn) [Example 33, 6-Fluoro-1-methyl-1,2-dihydro-3H-benzo[e]indole-3-carboximidamide 2,2,2-trifluoroacetic acid salt]
inhibition at 0.001 µM [1]: 28% | inhibition at 0.01 µM [1]: 82% | inhibition at 0.1 µM [1]: 101% | inhibition at 0.001 µM [2]: 29% | inhibition at 0.01 µM [2]: 81% | inhibition at 0.1 µM [2]: 99% | inhibition at 1 µM [2]: 100% | 5-HT2B receptor agonism (% of positive control) 1 nM [3]: −1% | 5-HT2B receptor agonism (% of positive control) 10 nM [3]: 4% | 5-HT2B receptor agonism (% of positive control) 100 nM [3]: 26% | 5-HT2B receptor agonism (% of positive control) 1000 nM [3]: −1%

CC1CN(C(=N)N)c2ccc3c(Br)cccc3c21.Cl (stereo not drawn) [Example 2, 6-Bromo-1-methyl-1,2-dihydro-3H-benzo[e]indole-3-carboximidamide hydrochloride]
inhibition at 0.001 µM [1]: 72% | inhibition at 0.01 µM [1]: 96% | inhibition at 0.1 µM [1]: 98% | inhibition at 0.001 µM [2]: 56% | inhibition at 0.01 µM [2]: 91% | inhibition at 0.1 µM [2]: 95% | inhibition at 1 µM [2]: 96% | 5-HT2B receptor agonism (% of positive control) 1 nM [3]: −3% | 5-HT2B receptor agonism (% of positive control) 10 nM [3]: −5% | 5-HT2B receptor agonism (% of positive control) 100 nM [3]: −3% | 5-HT2B receptor agonism (% of positive control) 1000 nM [3]: −4%

CC1CN(C(=N)N)c2ccc3ccccc3c21.Cl (stereo not drawn) [Example 3, 1-Methyl-1,2-dihydro-3H-benzo[e]indole-3-carboximidamide hydrochloride]
inhibition at 0.01 µM [1]: 63% | inhibition at 0.1 µM [1]: 90% | inhibition at 0.001 µM [2]: 2% | inhibition at 0.01 µM [2]: 50% | inhibition at 0.1 µM [2]: 100% | 5-HT2B receptor agonism (% of positive control) 1 nM [3]: −3% | 5-HT2B receptor agonism (% of positive control) 10 nM [3]: 0% | 5-HT2B receptor agonism (% of positive control) 100 nM [3]: −3% | Dermal thickness (arbitrary units) [4, 5]: 3.52 (0.05) *** arbitrary units | Hydroxyproline (ug/mL) [4, 5]: 3.44 (0.11) *** ug/mL | Myofibroblast counts [4, 5]: 1.31 (0.06) *** | Dermal thickness (arbitrary units) [4, 6]: 3.96 (0.06) ^++### arbitrary units | Hydroxyproline (ug/mL) [4, 6]: 3.85 (0.12) ^## ug/mL | Myofibroblast counts [4, 6]: 1.72 (0.07) ^+### | Dermal thickness (arbitrary units) [4, 7]: 3.56 (0.04) ^+++### arbitrary units | Hydroxyproline (ug/mL) [4, 7]: 3.58 (0.09) ^++### ug/mL | Myofibroblast counts [4, 7]: 1.41 (0.07) ^++### | Myofibroblast counts [4, 8]: significantly reduced | hydroxyproline content [4, 8]: significantly reduced | hypodermal thickening [4, 8]: significantly reduced | antifibrotic effect, 10 mg/kg/qd compared to 1 mg/kg/qd ([4]; therapeutic regimen): more potent antifibrotic effect
